Experimental data from patent US20220227765A1, “PYRIDO-INDOLE ANALOGUES AS GPX4 INHIBITORS” (Ferro Therapeutics, Inc., priority 2019, published 2022).
In brackets after ≈: the same amount, converted by molar mass. Read-outs that look alike come from different tables or passages of the source.

What was measured:
[1] = system: A431; experiment: Cell proliferation (Alamar Blue) assay, A431; format: cell-based, human; settings: Homo sapiens, A-431, 24 h
How it was run: (§1)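 Cells were seeded at 5000 cells/well and grown 16-24 h at 37° C./5% CO2. They were treated 24 h with compound at 10-0.0005 μM (3-fold dilutions, 1% DMSO). Viability was read by Alamar Blue fluorescence (ex 540/em 590 nm) after 1.5 h, and IC50 came from a variable-slope sigmoidal fit.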

[2] = system: SJSA-1; experiment: Cell proliferation (Alamar Blue) assay, SJSA-1; format: cell-based, human
How it was run: as §1

[3] = system: 786-O; experiment: Cell proliferation (Alamar Blue) assay, 786-O; format: cell-based, human
How it was run: as §1

[4] = Rat IV pharmacokinetics (2 mg/kg); format: in vivo; settings: male, SD, plasma; for clearance: read-out: Rat IV-PK CL; for AUC(0-t): read-out: Rat IV-PK AUC (0-t); for half-life: read-out: Rat IV-PK T1/2; for Vd: read-out: Rat IV-PK Vd
From the text: Institutional Animal Ethical Committee (IAEC) of Jubilant Biosys (IAEC/JDC/2019/188R (for Mice) and IAEC/JDC/2019/189R (for Rat) nominated by CPCSEA (Committee for the Purpose of Control and Supervision of Experiments on Animals) approved the mice and rat pharmacokinetic experiments. Male Balb/c mice (˜6-8 weeks old with body weight range of 22-25 g) and male SD rats (6-8 weeks old with body weight range of 200-250 g) were procured from Vivo Biotech, Hyderabad, India. Animals were quarantined in Jubilant Biosys Animal House for a period of 7 days with a 12:12 h light: dark cycles, and prior to the study the animals were stratified as per body weight.
B) Procedure for rat: Intravenous and oral pharmacokinetics study was done at a dose 2 and 10 mg/kg at dose volume of 2 and 10 mL/Kg. Serial blood sampling was done and at each time point (˜200 μL) were collected from retro-orbital plexus at 0.083 (Only for IV), 0.25, 0.5, 1, 2, 4, 8, 10 (only for PO) and 24 h. Blood samples were collected in tubes containing K2.EDTA as anticoagulant and centrifuged for 5 min at 10,000 rpm in a refrigerated centrifuge (Biofuge, Heraeus, Germany) maintained at 4° C. for plasma separation.
Group I (IV) received test compound intravenously by tail vein at 2 mg/Kg in solution formulation prepared using 30% Kolliphore EL in WFI; dose volume: 2 mL/Kg; strength: 1 mg/mL.
Blood concentration-time data of test compound was analyzed by non-compartmental method using Phoenix WinNonlin Version 8.1.

[5] = Kinetic solubility (PBS, pH 7.4); format: physicochemical; settings: aqueous buffer, kinetic from dmso stock
[6] = Human blood stability; format: in vitro ADME
[7] = Mouse plasma protein % unbound (ultracentrifuge method); format: in vitro ADME; settings: for fraction unbound at 4 h: mouse, plasma; for Mouse Plasma Protein % Unbound (Ultracentrifuge method, 4 h at 37° C.): Table B-6
[8] = CD-1 Mouse Whole Blood Stability Assay; format: in vitro ADME; settings: incubation at 37° C.
[9] = Equilibrium solubility at different pHs and with SBECD; format: physicochemical; settings: thermodynamic from solid
[10] = Human hepatocyte metabolic stability; format: in vitro ADME; settings: for half-life / hepatocyte CLint: human hepatocytes; for half-life: read-out: human hepatocytes T1/2; for hepatocyte CLint: read-out: human hepatocytes h Clintr (μL/min/10^6 cells)
[11] = Rat hepatocyte metabolic stability; format: in vitro ADME; settings: for half-life / hepatocyte CLint: rat hepatocytes; for half-life: read-out: rat hepatocytes T1/2; for hepatocyte CLint: read-out: rat hepatocytes h Clintr (μL/min/10^6 cells)
[12] = Homo sapiens, SJSA-1, 24 h, Table B-3, head prints SJSB-1, 24 h, read-out: IC50 (μM) SJSB-1
[13] = Homo sapiens, 786-0, 24 h, Table B-3, 786-O cells
[14] = aqueous buffer, pH 3.0 PBS buffer, read-out: Eq. solubility pH 3.0 PBS buffer
[15] = aqueous with cosolvent or surfactant or cyclodextrin, 20% SBECD (sulfobutyl ether cyclodextrin), read-out: Eq. solubility 20% SBECD

Structure (SMILES)	IC50 ([1]; Table B-3, A431 cells) [µM]	IC50 [2, 12] [µM]	IC50 [3, 13] [µM]	solubility kinetic ([5]; Table B-4) [µM]	CD-1 Mouse Whole Blood Stability % Remaining ([8]; Table B-6, 0 min) [%]	CD-1 Mouse Whole Blood Stability % Remaining ([8]; Table B-6, 30 min) [%]	CD-1 Mouse Whole Blood Stability % Remaining ([8]; Table B-6, 60 min) [%]	Mouse Plasma Protein % Unbound (Ultracentrifuge method, 4 h at 37° C.) [7]	other results
C#CC(=O)N1[C@@H](CCCC)Cc2c([nH]c3ccccc23)[C@@H]1c1ccc(C(=O)NCCOC)cc1 [Compound B-3, 4-((1S,3S)-3-butyl-2-propioloyl-2,3,4,9-tetrahydro-1H-pyrido[3,4-b]indol-1-yl)-N-(2-methoxyethyl)benzamide]	4.7	0.018	0.009	4 (≈ 1.83 µg/mL)	–	–	–	–	clearance [4]: 348 mL/min/kg; human blood stability % remaining ([6]; 15 min): 90%_15; human blood stability % remaining ([6]; 30 min): 55%_30; human blood stability % remaining ([6]; 45 min): 36%_45; human blood stability % remaining ([6]; 60 min): 22%_60; human blood stability % remaining ([6]; 120 min): 1.5%_120
C#CC(=O)N1[C@@H](CCCC)Cc2c([nH]c3c(F)cc(F)cc23)[C@@H]1C12CC(N)(C1)C2.Cl [Compound B-22]	5.3	0.047	0.031	–	100.0	70.3	55.0	–	fraction unbound at 4 h ([7]; Table B-6, 4 h at 37° C.): 0.037
C#CC(=O)N1[C@@H](CCCC)Cc2c([nH]c3c(F)cc(F)cc23)[C@@H]1c1cncs1 [Compound B-23]	> 10	0.431	0.507	–	100.0	4.0	0.5	Not stable	–
C#CC(=O)N1[C@@H](CCCC)Cc2c([nH]c3c(F)cc(F)cc23)[C@@H]1C1CCNCC1.Cl [Compound B-26]	7.5	0.08	0.177	–	100.0	44.7	26.7	–	fraction unbound at 4 h ([7]; Table B-6, 4 h at 37° C.): 0.061
CCCC[C@H]1Cc2c([nH]c3c(F)cc(F)cc23)[C@H](c2ccc(N3CCN(C)CC3)c(C#N)c2)N1C(=O)CCl [Compound B-27]	2	0.005	0.005	< 1	100.0	78.0	72.7	–	fraction unbound at 4 h ([7]; Table B-6, 4 h at 37° C.): 0.078; human blood stability % remaining ([6]; 15 min): 38%_15; human blood stability % remaining ([6]; 30 min): 4%_30; human blood stability % remaining ([6]; 45 min): 1%_45; human blood stability % remaining ([6]; 60 min): 0%_60; human blood stability % remaining ([6]; 120 min): 0%_120
C#CC(=O)N1[C@@H](CCCC)Cc2c([nH]c3c(F)cc(F)cc23)[C@@H]1c1ccc(C2COC2)cc1 [Compound B-29]	> 10	0.037	0.034	–	100.0	18.0	3.9	Not stable	–
C#CC(=O)N1[C@@H](CCCC)Cc2c([nH]c3c(F)cc(F)cc23)[C@@H]1c1cccnc1 [Compound B-30]	> 10	0.052	0.03	–	100.0	1.9	0.5	Not stable	solubility ([9]; aqueous buffer, pH 3.0, read-out: Eq. solubility pH 3.0): 700 µg/mL (≈ 1780 µM); solubility [9, 14]: 490 µg/mL (≈ 1250 µM); solubility [9, 15]: 240 µg/mL (≈ 610 µM); solubility kinetic ([5]; Table B-7): < 1 µM
C#CC(=O)N1[C@@H](CCCC)Cc2c([nH]c3c(F)cc(F)cc23)[C@@H]1c1ccnn1C [Compound B-34]	7.6	0.074	0.041	–	100.0	9.4	1.1	Not stable	solubility [9, 14]: < 1 µg/mL; solubility [9, 15]: > 1010 µg/mL; solubility kinetic ([5]; Table B-7): 11 µM (≈ 4.36 µg/mL)
O=C(CCl)N1[C@@H](CC2CC2)Cc2c([nH]c3ccccc23)[C@@H]1c1ccc(NC23CC4CC(CC(C4)C2)C3)cc1 [Compound B-36]	6.7	0.001	0.001	< 1	–	–	–	–	human hepatocytes extr. Ratio [10]: 0.13; human hepatocytes % met @ 180 min [10]: 3.5%; half-life [10]: 41.1 h; hepatocyte CLint [10]: 1.1 µL/min/1e6 cells; rat hepatocytes extr. Ratio [11]: 0.7; rat hepatocytes % met @ 180 min [11]: 72%; half-life [11]: 1.78 h; hepatocyte CLint [11]: 26 µL/min/1e6 cells; AUC(0-t) [4]: 431 ng·h/mL; clearance [4]: 87 mL/min/kg; half-life [4]: 0.5 h; Vd [4]: 3.5 L/kg; human blood stability % remaining ([6]; 15 min): ~100%_15; human blood stability % remaining ([6]; 30 min): 96%_30; human blood stability % remaining ([6]; 45 min): 82%_45; human blood stability % remaining ([6]; 60 min): 77%_60; human blood stability % remaining ([6]; 120 min): 51%_120
C#CC(=O)N1[C@@H](CC2CC2)Cc2c([nH]c3ccccc23)[C@@H]1c1ccc(NC23CC4CC(CC(C4)C2)C3)cc1 [Compound B-37]	4.6	0.004	0.001	< 1	–	–	–	–	human hepatocytes extr. Ratio [10]: 0.58; human hepatocytes % met @ 180 min [10]: 38%; half-life [10]: 4.5 h; hepatocyte CLint [10]: 10 µL/min/1e6 cells; rat hepatocytes extr. Ratio [11]: 0.64; rat hepatocytes % met @ 180 min [11]: 74%; half-life [11]: 2.28 h; hepatocyte CLint [11]: 20 µL/min/1e6 cells; AUC(0-t) [4]: 346 ng·h/mL; clearance [4]: 115 mL/min/kg; half-life [4]: 3.3 h; Vd [4]: 32 L/kg
C[C@H]1Cc2c([nH]c3ccccc23)[C@](C)(c2ccc(F)cc2)N1C(=O)CCl [Compound C-38]	–	–	–	–	–	–	–	–	fraction unbound at 4 h ([7]; Table C-4, 4 h at 37° C.): 0.105; IC50 ([1]; Table C-3, A431 cells): 2.95 µM; IC50 ([2]; Table C-3, SJSA-1 cells, 24 h, read-out: IC50 (μM) SJSA-1): 0.332 µM; IC50 ([3]; Table C-3, 786-O cells, 24 h): 0.437 µM; CD-1 Mouse Whole Blood Stability % Remaining ([8]; Table C-4, 0 min): 100.0%; CD-1 Mouse Whole Blood Stability % Remaining ([8]; Table C-4, 30 min): 74.4%; CD-1 Mouse Whole Blood Stability % Remaining ([8]; Table C-4, 60 min): 61.0%
